Measured values from US20250011456A1, “ANTIBODIES AGAINST CD14 AND USES THEREOF” (Villanelle Life Science Inc, priority 2023, published 2025).
Values joined by “and” are separate entries in the source; they are usually repeats but may differ in a detail not shown here. Identical values can stand only once.

Experiments:
[1] = system: CD14 positive recurrent bladder cancer patient-derived xenograft (PDX); test: Anti-CD14 IgG1/IgG4 with or without cisplatin, tumor treatment in PDX mice (tumor length, width, volume, tumor weight; Example 6); type: in vivo; conditions: for Tumor Length / Tumor Volume / Tumor Width: Cisplatin 4 mg/kg i.v. (C. Ex. 2), PDX mice 1-6
Text: After removing the primary tumor tissue from the patient, the tissue was temporarily placed in a complete culture medium containing RPMI1640 (Gibco Roswell Park Memorial Institute 1640 Media)+PS (penicillin and streptomycin)+10% FBS (Fetal bovine serum). The tissue was then transported to a sterile operating room within an SPF-grade (Specific Pathogen Free) animal facility. The tumor tissue was cut to an appropriate size (5 millimeters (mm) in diameter). Severely immunodeficient NSG (NOD scid gamma mouse) mice were anesthetized using an isoflurane respirator. The tumor was transplanted subcutaneously into the right rib area through surgery. When the tumor volume reached 1 cm^3, it was passaged following the same procedure, and after expanding for three generations, the tumor became stable for use in formal experiments. During the experiment, passaging and expansion were performed as needed. When the tumor volume reached 100 mm^3, the mice were divided into groups according to the experimental requirements and treated with drugs.
The IgG4 tested is the original version of Atibuclimab.
Drug administration on the PDX mice was performed intravenously.

[2] = Mouse weight under the treatment regimens of Example 6 (PDX mice); conditions: Cisplatin 4 mg/kg i.v. (C. Ex. 2), PDX mice 1-6
Experimental: For these experiments, eight (8) treatment groups for PDX mice were set up: control IgG group (C.Ex. 1), single cisplatin group (4 mg/kg; C.Ex. 2), single anti-CD14-IgG1 group (5 mg/kg; Ex. 1), single anti-CD14-IgG4 (5 mg/kg; Ex. 2), combined cisplatin and anti-CD14-IgG1 group (4 mg/kg+1.5 mg/kg; Ex. 3), combined cisplatin and anti-CD14-IgG4 group (4 mg/kg+1.5 mg/kg; Ex. 4), combined cisplatin and anti-CD14-IgG1 group (4 mg/kg+5 mg/kg; Ex. 5), and combined cisplatin and anti-CD14-IgG4 group (4 mg/kg+5 mg/kg; Ex. 6). […] When cisplatin was used in these experiments, the cisplatin was used at a dose of 4 mg/kg. “C.Ex.” refers to comparative examples and “Ex.” refers to examples of embodiments of the present disclosure. The control is a non-specific IgG1 having two identical heavy chains and two identical light chains. The non-specific IgG1 has no binding affinity to the antigen.
Drug administration on the PDX mice was performed intravenously. Drug administration was performed on days 0, 4, 7, 11, 14, 18, 21, 25, and 28. Measurements of length, width, volume, and weight were performed prior to the drug administration on day 0, 4, 7, 11, 14, 18, 21, 25, and 28. The tumors were present on the skin of the mice. A ruler was used to measure the length and the width. The tumor volume was calculated by volume=½(length×width^2). The weight of the mouse was measured by placing the mouse on a scale and weighing. Tumor weight was measured by removing the tumor from the mouse and weighing on a scale.

SMILES: N.N.[Cl][Pt][Cl] [Cisplatin, cisplatin, reference compound]
- Tumor Length ([1]; Day 0): 6.73 mm and 6.19 mm and 6.27 mm and 6.28 mm and 7.76 mm and 7.8 mm
- Tumor Volume ([1]; Day 0): 60.66 mm^3 and 92.72 mm^3 and 86.02 mm^3 and 73.84 mm^3 and 94.74 mm^3 and 109.53 mm^3
- Tumor Width ([1]; Day 0): 4.15 mm and 5.35 mm and 5.12 mm and 4.74 mm and 4.83 mm and 5.18 mm
- Tumor Length ([1]; Day 4): 6.66 mm and 6.27 mm and 5.94 mm and 5.93 mm and 6.62 mm and 5.98 mm
- Tumor Volume ([1]; Day 4): 87.83 mm^3 and 103.64 mm^3 and 106.38 mm^3 and 105.48 mm^3 and 165.90 mm^3 and 96.75 mm^3
- Tumor Width ([1]; Day 4): 5.02 mm and 5.62 mm and 5.85 mm and 5.83 mm and 6.92 mm and 5.56 mm
- Tumor Length ([1]; Day 7): 6.33 mm and 6.99 mm and 6.68 mm and 7.3 mm and 7.66 mm and 7.34 mm
- Tumor Volume ([1]; Day 7): 97.32 mm^3 and 111.46 mm^3 and 139.19 mm^3 and 144.96 mm^3 and 184.82 mm^3 and 147.18 mm^3
- Tumor Width ([1]; Day 7): 5.42 mm and 5.52 mm and 6.31 mm and 6.16 mm and 6.79 mm and 6.19 mm
- Tumor Length ([1]; Day 11): 8.7 mm and 6.68 mm and 7.84 mm and 8.41 mm and 7.57 mm and 7.94 mm
- Tumor Width ([1]; Day 11): 6.55 mm and 6.18 mm and 6.08 mm and 7.57 mm and 7.19 mm and 5.43 mm
- Tumor Length ([1]; Day 14): 7.16 mm and 8.08 mm and 7.68 mm and 8.19 mm and 9.8 mm and 9.87 mm
- Tumor Volume ([1]; Day 14): 191.56 mm^3 and 209.57 mm^3 and 206.05 mm^3 and 280.52 mm^3 and 299.36 mm^3 and 256.73 mm^3
- Tumor Width ([1]; Day 14): 7.15 mm and 7.04 mm and 7.16 mm and 8.09 mm and 7.64 mm and 7.05 mm
- Tumor Length ([1]; Day 18): 9.5 mm and 10.13 mm and 8.93 mm and 9.14 mm and 8.11 mm and 9.96 mm
- Tumor Volume ([1]; Day 18): 359.20 mm^3 and 359.95 mm^3 and 306.62 mm^3 and 367.06 mm^3 and 235.57 mm^3 and 353.91 mm^3
- Tumor Width ([1]; Day 18): 8.5 mm and 8.24 mm and 8.1 mm and 8.76 mm and 7.45 mm
- Tumor Length ([1]; Day 21): 9.64 mm and 9.79 mm and 9.77 mm and 10.69 mm and 9.27 mm and 9.57 mm
- Tumor Volume ([1]; Day 21): 461.07 mm^3 and 334.49 mm^3 and 398.65 mm^3 and 549.42 mm^3 and 378.25 mm^3 and 399.39 mm^3
- Tumor Width ([1]; Day 21): 9.56 mm and 8.08 mm and 8.83 mm and 9.91 mm and 8.93 mm
- Tumor Length ([1]; Day 25): 10.14 mm and 11.63 mm and 10.89 mm and 10.35 mm and 10.8 mm and 9.29 mm
- Tumor Volume ([1]; Day 25): 447.20 mm^3 and 648.21 mm^3 and 545.11 mm^3 and 447.56 mm^3 and 545.04 mm^3 and 354.58 mm^3
- Tumor Width ([1]; Day 25): 9.18 mm and 10.32 mm and 9.78 mm and 9.09 mm and 9.82 mm and 8.54 mm
- Tumor Length ([1]; Day 28): 10.94 mm and 11.95 mm and 11.36 mm and 9.95 mm and 11.27 mm and 11.26 mm
- Tumor Volume ([1]; Day 28): 472.03 mm^3 and 644.29 mm^3 and 617.31 mm^3 and 399.59 mm^3 and 624.50 mm^3 and 680.98 mm^3
- Tumor Width ([1]; Day 28): 9.08 mm and 10.15 mm and 10.19 mm and 8.76 mm and 10.29 mm and 10.75 mm
- Tumor weight after 28 days ([1]; Cisplatin (4 mg/kg), C. Ex. 2, per mouse 1-6): 0.556 grams and 0.459 grams and 0.538 grams and 0.669 grams and 0.566 grams and 0.419 grams
- tumor suppression rate ([1]; single cisplatin 4 mg/kg (C.Ex. 2), after 28 days, compared to the control group): about 50%
- Mouse Weight ([2]; Day 0): 20.24 g and 20.99 g and 19.91 g and 20.78 g and 20.29 g and 20.61 g
- Mouse Weight ([2]; Day 4): 20.91 g and 20.32 g and 20.42 g and 20.81 g and 20.93 g and 19.35 g
- Mouse Weight ([2]; Day 7): 19.77 g and 20.8 g and 21.42 g and 19.96 g and 20.93 g and 20.38 g
- Mouse Weight ([2]; Day 11): 21.17 g and 21.76 g and 20.58 g and 20.08 g and 21.59 g and 19.94 g
- Mouse Weight ([2]; Day 14): 21.09 g and 21.3 g and 21.38 g and 21.68 g and 20.56 g and 22.59 g
- Mouse Weight ([2]; Day 18): 21.17 g and 21.02 g and 21.25 g and 21.23 g and 21.03 g and 21.58 g
- Mouse Weight ([2]; Day 21): 22.54 g and 22.44 g and 22.47 g and 22.85 g and 22.23 g and 22.65 g
- Mouse Weight ([2]; Day 25): 25.05 g and 24.06 g and 22.26 g and 23.7 g and 25.49 g and 22.66 g
- Mouse Weight ([2]; Day 28): 24.11 g and 25.57 g and 24.32 g and 23.69 g and 24.47 g and 25.73 g
